Test results from patent US20180311297A1, “PHARMACEUTICAL COMPOSITION FOR INCREASING CONTENT AND AVAILABILITY OF CYCLIC ADENOSINE MONOPHOSPHATE IN A BODY AND PREPARATION THEREOF” (priority 2012, published 2018).
Counter-ions that a name gives are not always drawn.

How the values were obtained:
[1] = tested on: depression patients; details: STAR*D study, over 2800 depression patients; cited from earlier work
[2] = tested on: phosphodiesterase 4 (PDE4); details: cited from earlier work
[3] = tested on: unpredictably long-term stressed rats; experiment: unpredictable long-term stimulus (CUMS) experiment on rats: body weight measurement; assay type: in vivo, rat; details: CUMS model rats, 21 consecutive days; low dose of Embodiment 1 (15 mg/kg/d) or positive group; compared to control group
Text: (§1) The inventor conducted animal behavior experiments, including the tail-hang experiment on mice, the forced-swim experiment on rats, the forced-swim experiment on mice, the unpredictable long-term stimulus experiment on rats, the olfactory bulb lesion experiment on rats and others, according to the pathogenetic mechanism and clinical symptoms of depression. 1.2 The pharmaceutical composition of Embodiment 1 was intragastrically administered to rats under the chronic unpredictable mild stress (CUMS) model with the dose of 15 mg/kg/d, 30 mg/kg/d and 60 mg/kg/d for 21 consecutive days.

[4] = tested on: forced-swim rats; experiment: forced-swim experiment on rats; assay type: in vivo, rat; details: intragastric, one week; Embodiment 1 medium dose 30 mg/kg/d, or positive control; vs control P<0.05
Text: (§2) The inventor conducted animal behavior experiments, including the tail-hang experiment on mice, the forced-swim experiment on rats, the forced-swim experiment on mice, the unpredictable long-term stimulus experiment on rats, the olfactory bulb lesion experiment on rats and others, according to the pathogenetic mechanism and clinical symptoms of depression.

[5] = tested on: olfactory bulb lesion model rats; experiment: olfactory bulb lesion experiment: open field box test; assay type: in vivo, rat; details: 24 consecutive days, high dose of Embodiment 1 (60 mg/kg/d) or Paroxetine of 3 mg/kg/d, compared to control group
Text: The inventor conducted animal behavior experiments, including the tail-hang experiment on mice, the forced-swim experiment on rats, the forced-swim experiment on mice, the unpredictable long-term stimulus experiment on rats, the olfactory bulb lesion experiment on rats and others, according to the pathogenetic mechanism and clinical symptoms of depression. 1.3 The pharmaceutical composition of Embodiment 1 was intragastrically administered to olfactory bulb lesion model rats with the dose of 15 mg/kg/d, 30 mg/kg/d and 60 mg/kg/d for 24 consecutive days.

[6] = tested on: forced-swim mice; experiment: forced-swim experiment on mice; assay type: in vivo; details: intragastric, one week; Embodiment 1 medium dose 40 mg/kg/d, or positive control; vs control P<0.05
Text: as §2

[7] = tested on: unpredictably long-term stressed rats; experiment: unpredictable long-term stimulus (CUMS) experiment on rats: sucrose intake measurement; assay type: in vivo, rat; details: CUMS model rats, 21 consecutive days; low dose of Embodiment 1 (15 mg/kg/d) or positive group; vs control P<0.01
Text: as §1

[8] = tested on: unpredictably long-term stressed rats; experiment: unpredictable long-term stimulus (CUMS) experiment on rats: jumping test; assay type: in vivo, rat; details: CUMS model rats, 21 consecutive days; low dose of Embodiment 1 (15 mg/kg/d) or positive group; vs control P<0.01
Text: as §1

[9] = tested on: tail-hanged mice; experiment: tail-hang experiment on mice; assay type: in vivo; details: intragastric, one week; Embodiment 1 medium dose 40 mg/kg/d, or positive control; vs control P<0.05
Text: as §2

[10] = tested on: cAMP; experiment: level of cAMP in hippocampus of normal rats 8 hours after administration (ELISA); assay type: in vivo, rat; details: 8 hours after intragastric 5 mg/kg (positive control drug)
Protocol: 8 hours after normal rats were intragastrically administered with the pharmaceutical of Embodiment 1, their hippocampi were taken out. The variations in the levels of cAMP and phospho-CREB (p-CREB) in the hippocampus were determined using enzyme-linked immunosorbent assay (ELISA), the variations on the activities of the cAMP-dependent PKA were determined using bioluminescent assay, and the variations in the activities of PDE were determined using a fluorescence method. […] The experimental data were statistically analyzed and plotted using Origin […].5 software. 2. […] The sample was determined using the ParameterTM Cyclic AMP Assay ELISA kit (R&D Systems, Inc., U.S.). The sample was defrosted to room temperature, and the level of cAMP in the sample was determined using competitive ELISA. The value of optical density (OD) of the sample was determined at 450 nm using the multi-mode microplate reader, and the level of cAMP in the sample was calculated according to the standard curve. 5.1 The level of cAMP in the rat's hippocampus: The cAMP concentration in the homogenate of the rat's hippocampus was determined using the ELISA assay, and the level of cAMP contained in the hippocampus tissue was obtained by dividing the […], and is presented as pmol/g tissue (referring to FIG. 5).

[11] = tested on: unpredictably long-term stressed rats; experiment: unpredictable long-term stimulus (CUMS) experiment on rats: open field box test; assay type: in vivo, rat; details: CUMS model rats, 21 consecutive days; low dose of Embodiment 1 (15 mg/kg/d) or positive group; vs control P<0.01
Text: as §1

COc1ccc(C(CN(C)C)C2(O)CCCCC2)cc1.Cl (stereo not shown) [Effexor®]
remission rate [1]: about 30%

COc1ccc(C2CNC(=O)C2)cc1OC1CCCC1 (stereo not shown) [Rolipram®]
side effects ([2]; background statement): severe emesis | anti-depression effect ([2]; experimental results referred to in background): significant anti-depression effect

Fc1ccc([C@@H]2CCNC[C@H]2COc2ccc3c(c2)OCO3)cc1 [Paroxetine, Paroxetine hydrochloride]
body weight gains [3]: significantly increased | non-movement time for the forced-swim rats [4]: significantly shorter | decrease of the horizontal movement and vertical movement caused by the olfactory bulb lesion (open field box test) [5]: significantly improved | non-movement time for the forced-swim mice [6]: significantly shorter | sucrose consumption [7]: significantly increased | number of errors in rat jumping trial [8]: significantly decreased | non-movement time for the tail-hanged mice [9]: significantly shorter | initiation of the cAMP-PKA-CREB (p-CREB) pathway [10]: cannot initiate | horizontal movement and vertical movement [11]: significantly increased

Br.CN(C)CCCC1(c2ccc(F)cc2)OCc2cc(C#N)ccc21 (stereo not shown) [Celexa®]
remission rate [1]: about 30%

CC(NC(C)(C)C)C(=O)c1cccc(Cl)c1.Cl (stereo not shown) [Wellbutrin®]
remission rate [1]: about 30%

Cl.O=C1CC2(CCCC2)CC(=O)N1CCCCN1CCN(c2ncccn2)CC1 [Buspar®]
remission rate [1]: about 30%

CN[C@H]1CC[C@@H](c2ccc(Cl)c(Cl)c2)c2ccccc21.Cl [Zoloft®]
remission rate [1]: about 30%
